# Test results from ChEMBL document CHEMBL4622844, “Inhibition of bacterial growth and galactosyltransferase activity of WbwC by α, ω-bis(3-alkyl-1H-imidazolium)alkane salts: Effect of varying carbon content” (Bioorg Med Chem, 2020).
# pIC50: −log10 of the molar value. The source made the active and inactive calls. The calls are words filed in the database; no cut-off is given here.
# Key:
# Escherichia coli [1] = assay: Inhibition of recombinant Escherichia coli O104:H4 Beta-1,3-galactosyltransferase WbwC expressed in Escherichia coli BL21 at 0.5 mM in presence of UDP-[3H]Gal and GalNAC-PO3-PO3-(CH2)11-O-phenyl after 1 hr by scintillation counting method relative to control
# OC-3-VGH = assay: Growth inhibition of human OC-3-VGH cells at 50 uM after 24 hrs by MTT assay; assay type: cell-based
# AD293 = assay: Growth inhibition of human AD293 cells at 50 uM after 24 hrs by MTT assay; assay type: cell-based; conditions: ad293, 24 h
# A549 = assay: Growth inhibition of human A549 cells at 50 uM after 24 hrs by MTT assay; assay type: cell-based; conditions: a549, 24 h
# [2] = Inhibition of recombinant Escherichia coli O104:H4 Beta-1,3-galactosyltransferase WbwC expressed in Escherichia coli BL21 in presence of UDP-[3H]Gal and GalNAC-PO3-PO3-(CH2)11-O-phenyl after 1 hr by scintillation counting method
# [3] = biological target: T1, Beta-1,4-galactosyltransferase 1 (Bos taurus) (UniProt P08037); assay: Inhibition of bovine milk Beta-1,4-galactosyltransferase at 0.5 mM in presence of UDP-[3H]Gal and GlcNAc-beta-Bn after 1 hr by scintillation counting method
# T1 sequence (whole entry): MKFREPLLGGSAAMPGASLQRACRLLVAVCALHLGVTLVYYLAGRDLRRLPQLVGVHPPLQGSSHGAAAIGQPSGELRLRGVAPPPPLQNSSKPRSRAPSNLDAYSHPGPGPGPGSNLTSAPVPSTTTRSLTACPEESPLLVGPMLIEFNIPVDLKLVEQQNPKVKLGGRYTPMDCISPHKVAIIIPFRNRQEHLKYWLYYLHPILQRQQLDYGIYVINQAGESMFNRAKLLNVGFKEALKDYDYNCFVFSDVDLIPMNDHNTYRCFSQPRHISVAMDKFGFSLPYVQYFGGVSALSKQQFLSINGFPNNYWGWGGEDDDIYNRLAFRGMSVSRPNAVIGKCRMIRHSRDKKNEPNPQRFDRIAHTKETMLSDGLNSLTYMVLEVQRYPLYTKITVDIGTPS
# [4] = test system: Staphylococcus epidermidis; assay: Antimicrobial activity against Staphylococcus epidermidis assessed as inhibition of colony formation at 25 uM preincubated for 4 hrs and measured after overnight incubation by CFU assay; assay type: functional
# Escherichia coli [5] = assay: Antimicrobial activity against Escherichia coli BL21 assessed as inhibition of colony formation at 5 uM preincubated for 4 hrs and measured after overnight incubation by CFU assay; assay type: functional
# Pseudomonas aeruginosa [6] = assay: Antimicrobial activity against Pseudomonas aeruginosa PAO1 assessed as inhibition of colony formation at 5 uM preincubated for 4 hrs and measured after overnight incubation by CFU assay; assay type: functional
# Bacillus subtilis [7] = assay: Antimicrobial activity against Bacillus subtilis assessed as inhibition of colony formation at 10 uM preincubated for 4 hrs and measured after overnight incubation by CFU assay; assay type: functional
# [8] = test system: Staphylococcus epidermidis; assay: Antimicrobial activity against Staphylococcus epidermidis assessed as inhibition of colony formation at 10 uM preincubated for 4 hrs and measured after overnight incubation by CFU assay; assay type: functional
# Bacillus subtilis [9] = assay: Antimicrobial activity against Bacillus subtilis assessed as inhibition of colony formation at 5 uM preincubated for 4 hrs and measured after overnight incubation by CFU assay; assay type: functional
# Pseudomonas aeruginosa [10] = assay: Antimicrobial activity against Pseudomonas aeruginosa PAO1 assessed as inhibition of colony formation at 10 uM preincubated for 4 hrs and measured after overnight incubation by CFU assay; assay type: functional
# Escherichia coli [11] = assay: Antimicrobial activity against Escherichia coli BL21 assessed as inhibition of colony formation at 25 uM preincubated for 4 hrs and measured after overnight incubation by CFU assay; assay type: functional
# Bacillus subtilis [12] = assay: Antimicrobial activity against Bacillus subtilis assessed as inhibition of colony formation at 25 uM preincubated for 4 hrs and measured after overnight incubation by CFU assay; assay type: functional
# [13] = test system: Staphylococcus epidermidis; assay: Antimicrobial activity against Staphylococcus epidermidis assessed as inhibition of colony formation at 5 uM preincubated for 4 hrs and measured after overnight incubation by CFU assay; assay type: functional
# Pseudomonas aeruginosa [14] = assay: Antimicrobial activity against Pseudomonas aeruginosa PAO1 assessed as inhibition of colony formation at 25 uM preincubated for 4 hrs and measured after overnight incubation by CFU assay; assay type: functional
# Escherichia coli [15] = assay: Antimicrobial activity against Escherichia coli BL21 assessed as inhibition of colony formation at 10 uM preincubated for 4 hrs and measured after overnight incubation by CFU assay; assay type: functional
# Pseudomonas aeruginosa [16] = assay: Antimicrobial activity against Pseudomonas aeruginosa PAO1 assessed as inhibition of colony formation at 50 uM preincubated for 4 hrs and measured after overnight incubation by CFU assay; assay type: functional
compound,measurement,setting,value
CCCCCCCCC[n+]1ccn(CCCCCCn2cc[n+](CCCCCCCCC)c2)c1,inhibition,Escherichia coli [1],< 10%
CCCCCC[n+]1ccn(CCCCCCn2cc[n+](CCCCCC)c2)c1,inhibition,Escherichia coli [1],6%
CCCCCCC[n+]1ccn(CCCCCCCCCCn2cc[n+](CCCCCCC)c2)c1,inhibition,Escherichia coli [1],< 1%
c1cn(CCCCCCCCCCCCCCCCn2ccnc2)cn1,growth inhibition (GI),OC-3-VGH,Non-Toxic
same,growth inhibition (GI),AD293,Non-Toxic
same,growth inhibition (GI),A549,Non-Toxic
CCCCCCCCCC[n+]1ccn(CCCCCCCCCCCCCCCCn2cc[n+](CCCCCCCCCC)c2)c1,inhibition,Escherichia coli [1],92%
same,pIC50,[2],3.83
CCCCCCCCC[n+]1ccn(CCCCCCCCCCn2cc[n+](CCCCCCCCC)c2)c1,inhibition,Escherichia coli [1],95%
same,pIC50,[2],4.64
same,inhibition,[3],Active
CCCCCCCCC[n+]1ccn(CCCCCCCCCCCCCCCCn2cc[n+](CCCCCCCCC)c2)c1,inhibition,Escherichia coli [1],93%
same,pIC50,[2],4.46
CCCCCCCCCCCC[n+]1ccn(CCCCCCCCCCCCCCCCn2cc[n+](CCCCCCCCCCCC)c2)c1,inhibition,Escherichia coli [1],92%
same,pIC50,[2],3.92
same,inhibition,[3],Active
CCCCCCCCCC[n+]1ccn(CCCCCCCCCCn2cc[n+](CCCCCCCCCC)c2)c1,inhibition,Escherichia coli [1],98%
same,pIC50,[2],3.82
c1cn(CCCCCCCCCCCCCCCCCCn2ccnc2)cn1,growth inhibition (GI),OC-3-VGH,Non-Toxic
same,growth inhibition (GI),AD293,Non-Toxic
same,growth inhibition (GI),A549,Non-Toxic
C[n+]1ccn(CCCCCCCCCCCCCCn2cc[n+](C)c2)c1,inhibition at 25 µM,[4],0%
same,inhibition at 5 µM,Escherichia coli [5],0%
same,inhibition at 5 µM,Pseudomonas aeruginosa [6],0%
same,inhibition,Escherichia coli [1],10%
same,inhibition at 10 µM,Bacillus subtilis [7],20%
same,inhibition at 10 µM,[8],0%
same,inhibition at 5 µM,Bacillus subtilis [9],8%
same,inhibition at 10 µM,Pseudomonas aeruginosa [10],4%
same,inhibition at 25 µM,Escherichia coli [11],51%
same,inhibition at 25 µM,Bacillus subtilis [12],51%
same,inhibition at 5 µM,[13],0%
same,inhibition at 25 µM,Pseudomonas aeruginosa [14],22%
same,inhibition at 10 µM,Escherichia coli [15],32%
CCCCCCCC[n+]1ccn(CCCCCCCCCCn2cc[n+](CCCCCCCC)c2)c1,inhibition at 25 µM,[4],100%
same,inhibition at 5 µM,Escherichia coli [5],100%
same,inhibition at 5 µM,Pseudomonas aeruginosa [6],96%
same,inhibition,Escherichia coli [1],64%
same,inhibition at 10 µM,Bacillus subtilis [7],100%
same,inhibition at 10 µM,[8],100%
same,inhibition at 5 µM,Bacillus subtilis [9],100%
same,inhibition at 10 µM,Pseudomonas aeruginosa [10],100%
same,inhibition at 25 µM,Escherichia coli [11],100%
same,inhibition at 25 µM,Bacillus subtilis [12],100%
same,pIC50,[2],3.91
same,inhibition at 5 µM,[13],100%
same,inhibition at 25 µM,Pseudomonas aeruginosa [14],100%
same,inhibition at 10 µM,Escherichia coli [15],100%
C[n+]1ccn(CCCCCCn2cc[n+](C)c2)c1,inhibition,Escherichia coli [1],7%
same,inhibition at 50 µM,Pseudomonas aeruginosa [16],0%
C[n+]1ccn(CCCCCCCCCCCCCCCn2cc[n+](C)c2)c1,inhibition,Escherichia coli [1],11%
CCCCCCCCCCC[n+]1ccn(CCCCCCCCCCn2cc[n+](CCCCCCCCCCC)c2)c1,inhibition,Escherichia coli [1],98%
same,pIC50,[2],4.21
CCCCCCCCCCCC[n+]1ccn(CCCCCCCCCCn2cc[n+](CCCCCCCCCCCC)c2)c1,inhibition at 25 µM,[4],100%
same,inhibition at 5 µM,Escherichia coli [5],100%
same,inhibition at 5 µM,Pseudomonas aeruginosa [6],> 98%
same,inhibition,Escherichia coli [1],91%
same,inhibition at 10 µM,Bacillus subtilis [7],100%
same,inhibition at 10 µM,[8],100%
same,inhibition at 5 µM,Bacillus subtilis [9],100%
same,inhibition at 10 µM,Pseudomonas aeruginosa [10],100%
same,inhibition at 25 µM,Escherichia coli [11],100%
same,inhibition at 25 µM,Bacillus subtilis [12],100%
same,pIC50,[2],4.23
same,inhibition at 5 µM,[13],100%
same,inhibition at 25 µM,Pseudomonas aeruginosa [14],< 98%
same,inhibition at 10 µM,Escherichia coli [15],100%
same,inhibition,[3],Active
C[n+]1ccn(CCCCn2cc[n+](C)c2)c1,inhibition,Escherichia coli [1],9%
same,inhibition at 50 µM,Pseudomonas aeruginosa [16],0%
CCCCCCCCCC[n+]1ccn(CCCCCCn2cc[n+](CCCCCCCCCC)c2)c1,inhibition,Escherichia coli [1],92%
same,pIC50,[2],3.58
same,inhibition,[3],Active
CCCCCCCC[n+]1ccn(CCCCCCn2cc[n+](CCCCCCCC)c2)c1,inhibition,Escherichia coli [1],13%
CCCCCCC[n+]1ccn(CCCCCCn2cc[n+](CCCCCCC)c2)c1,inhibition,Escherichia coli [1],16%
c1cn(CCCCCCCCCCCCCCCCCCCCn2ccnc2)cn1,growth inhibition (GI),OC-3-VGH,Non-Toxic
same,growth inhibition (GI),AD293,Non-Toxic
same,growth inhibition (GI),A549,Non-Toxic
CCCCCC[n+]1ccn(CCCCCCCCCCCCCCCCn2cc[n+](CCCCCC)c2)c1,inhibition,Escherichia coli [1],88%
same,pIC50,[2],4.32
same,inhibition,[3],Active
C[n+]1ccn(CCCCCCCCCCCCCCCCn2cc[n+](C)c2)c1,inhibition,Escherichia coli [1],< 1%
CCCCCCCC[n+]1ccn(CCCCCCCCCCCCCCCCn2cc[n+](CCCCCCCC)c2)c1,inhibition,Escherichia coli [1],93%
same,pIC50,[2],4.74
C[n+]1ccn(CCCCCCCCCCCCCCCCCCCCCCn2cc[n+](C)c2)c1,inhibition,Escherichia coli [1],91%
same,pIC50,[2],3.80
same,inhibition at 25 µM,Pseudomonas aeruginosa [14],> 95%
same,inhibition at 50 µM,Pseudomonas aeruginosa [16],100%
CCCCCCCCCCC[n+]1ccn(CCCCCCn2cc[n+](CCCCCCCCCCC)c2)c1,inhibition,Escherichia coli [1],99%
same,pIC50,[2],3.93
CCCCCCCCCCCC[n+]1ccn(CCCCCCn2cc[n+](CCCCCCCCCCCC)c2)c1,inhibition,Escherichia coli [1],90%
same,pIC50,[2],4.37
same,inhibition,[3],Active
CCCCCCCCCCC[n+]1ccn(CCCCCCCCCCCCCCCCn2cc[n+](CCCCCCCCCCC)c2)c1,inhibition at 25 µM,[4],100%
same,inhibition at 5 µM,Escherichia coli [5],100%
same,inhibition at 5 µM,Pseudomonas aeruginosa [6],28%
same,inhibition,Escherichia coli [1],92%
same,inhibition at 10 µM,Bacillus subtilis [7],100%
same,inhibition at 10 µM,[8],100%
same,inhibition at 5 µM,Bacillus subtilis [9],100%
same,inhibition at 10 µM,Pseudomonas aeruginosa [10],77%
same,inhibition at 25 µM,Escherichia coli [11],100%
same,inhibition at 25 µM,Bacillus subtilis [12],100%
same,pIC50,[2],3.91
same,inhibition at 5 µM,[13],100%
same,inhibition at 25 µM,Pseudomonas aeruginosa [14],100%
same,inhibition at 10 µM,Escherichia coli [15],100%
CCCCCCC[n+]1ccn(CCCCCCCCCCCCCCCCn2cc[n+](CCCCCCC)c2)c1,inhibition,Escherichia coli [1],95%
same,pIC50,[2],4.96
C[n+]1ccn(CCCCCCCCn2cc[n+](C)c2)c1,inhibition,Escherichia coli [1],21%
CCCCCC[n+]1ccn(CCCCCCCCCCn2cc[n+](CCCCCC)c2)c1,inhibition,Escherichia coli [1],< 1%
